pIC50: −log10 of the molar value.
Columns and labels:
[1] = biological target: T1, Integrin alpha-IIb/beta-3 (Homo sapiens, UniProt P05106+P08514); experiment: Inhibition of fibrinogen (Fg) interaction with GPIIb/IIIa in gel filtered platelets; type: functional
[2] = Inhibition of platelet aggregation in citreated human platelet rich plasma (PRP)
[3] = biological target: T1, Integrin alpha-IIb/beta-3; experiment: Affinity for purified human platelet glycoprotein alpha IIb beta3 integrin receptor in ELISA

T1 sequence (P05106 27-788 limits assumed): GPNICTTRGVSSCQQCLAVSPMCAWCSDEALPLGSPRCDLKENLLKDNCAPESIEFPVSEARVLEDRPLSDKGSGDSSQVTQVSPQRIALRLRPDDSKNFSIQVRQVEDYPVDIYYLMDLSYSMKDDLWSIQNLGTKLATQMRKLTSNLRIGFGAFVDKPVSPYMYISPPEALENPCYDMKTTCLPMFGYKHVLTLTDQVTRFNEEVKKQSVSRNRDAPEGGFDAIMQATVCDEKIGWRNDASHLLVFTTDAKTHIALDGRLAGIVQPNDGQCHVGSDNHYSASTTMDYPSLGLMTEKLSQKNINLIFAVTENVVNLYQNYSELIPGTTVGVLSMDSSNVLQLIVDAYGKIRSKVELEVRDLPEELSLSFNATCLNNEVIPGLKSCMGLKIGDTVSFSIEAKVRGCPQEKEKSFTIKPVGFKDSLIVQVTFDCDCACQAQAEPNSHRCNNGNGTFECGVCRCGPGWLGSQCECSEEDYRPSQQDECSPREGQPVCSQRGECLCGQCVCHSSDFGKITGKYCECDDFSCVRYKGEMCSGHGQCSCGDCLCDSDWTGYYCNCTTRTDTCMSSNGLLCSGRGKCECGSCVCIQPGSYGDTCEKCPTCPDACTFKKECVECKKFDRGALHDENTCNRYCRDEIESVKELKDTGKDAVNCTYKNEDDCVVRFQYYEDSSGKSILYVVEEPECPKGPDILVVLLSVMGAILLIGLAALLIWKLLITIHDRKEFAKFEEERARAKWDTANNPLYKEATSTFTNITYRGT
T1 sequence (P08514 32-887 limits assumed): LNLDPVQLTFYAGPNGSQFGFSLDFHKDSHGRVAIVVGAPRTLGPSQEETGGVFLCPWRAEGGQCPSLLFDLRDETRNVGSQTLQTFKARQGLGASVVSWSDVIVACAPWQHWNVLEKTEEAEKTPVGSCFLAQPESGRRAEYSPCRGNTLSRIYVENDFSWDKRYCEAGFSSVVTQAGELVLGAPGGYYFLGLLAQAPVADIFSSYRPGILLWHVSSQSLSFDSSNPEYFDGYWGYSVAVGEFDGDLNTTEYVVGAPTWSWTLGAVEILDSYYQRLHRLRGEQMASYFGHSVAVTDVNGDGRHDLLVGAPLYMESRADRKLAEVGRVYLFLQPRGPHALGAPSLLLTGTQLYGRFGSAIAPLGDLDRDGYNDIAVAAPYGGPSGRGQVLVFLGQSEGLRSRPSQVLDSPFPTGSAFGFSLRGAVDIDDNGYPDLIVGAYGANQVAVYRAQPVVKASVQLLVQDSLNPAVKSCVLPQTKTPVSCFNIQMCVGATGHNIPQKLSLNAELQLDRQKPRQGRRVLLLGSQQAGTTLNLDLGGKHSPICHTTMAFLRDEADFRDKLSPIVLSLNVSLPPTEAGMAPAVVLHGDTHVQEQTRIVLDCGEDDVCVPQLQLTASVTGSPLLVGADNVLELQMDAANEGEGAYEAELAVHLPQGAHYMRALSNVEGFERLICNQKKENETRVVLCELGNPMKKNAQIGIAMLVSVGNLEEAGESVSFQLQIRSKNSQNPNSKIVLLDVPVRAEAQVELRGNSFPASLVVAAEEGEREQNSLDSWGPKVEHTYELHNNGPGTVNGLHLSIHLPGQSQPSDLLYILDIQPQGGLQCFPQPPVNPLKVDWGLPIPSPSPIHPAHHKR
T1 sequence (P08514 891-1039 limits assumed): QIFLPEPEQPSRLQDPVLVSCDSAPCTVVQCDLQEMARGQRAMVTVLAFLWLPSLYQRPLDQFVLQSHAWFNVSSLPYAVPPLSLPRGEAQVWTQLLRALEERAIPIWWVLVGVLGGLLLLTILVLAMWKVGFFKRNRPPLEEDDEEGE

| SMILES | pIC50 [1] | pIC50 [2] | pIC50 [3] |
| --- | --- | --- | --- |
| CCCCOC(=O)N[C@@H](CNC(=O)C[C@H]1CC(c2ccc(C(=N)N)cc2)=NO1)C(=O)O | 7.68 | 7.30 | – |
| COP(=O)(NC(CNC(=O)CC1CC(c2ccc(C(=N)N)cc2)=NO1)C(=O)O)OC (stereo not given) | 7.27 | – | 9.26 |
| CCOP(=O)(NC(CNC(=O)CC1CC(c2ccc(C(=N)N)cc2)=NO1)C(=O)O)OCC (stereo not given) | 6.99 | – | 8.77 |
| C=CCOP(=O)(NC(CNC(=O)CC1CC(c2ccc(C(=N)N)cc2)=NO1)C(=O)O)OCC=C (stereo not given) | 7.34 | – | 8.82 |
| CCCCOP(=O)(NC(CNC(=O)CC1CC(c2ccc(C(=N)N)cc2)=NO1)C(=O)O)OCCCC (stereo not given) | 7.26 | – | 8.92 |
| N=C(N)c1ccc(C2=NOC(CC(=O)NCC(NP(=O)(O)O)C(=O)O)C2)cc1 (stereo not given) | 6.64 | – | 8.59 |
| CC(C)OP(=O)(NC(CNC(=O)CC1CC(c2ccc(C(=N)N)cc2)=NO1)C(=O)O)OC(C)C (stereo not given) | 7.14 | – | 9.07 |
| N=C(N)c1ccc(C2=NOC(CC(=O)NCCC(=O)O)C2)cc1 (stereo not given) | 6.85 | – | – |

— ChEMBL document CHEMBL1132008, “Isoxazoline GPIIb/IIIa antagonists bearing a phosphoramidate” (Bioorg Med Chem Lett, 1999)
